# Assay results reported in paper PMC9243000 (Cell Discovery, 2022).
# Positions of bridges follow the written chain, without caps; N, C: chain ends. Chains are numbered I, II in the order given. No end group written: not given here.
# Experiments:
# [1] = test system: SARS-CoV-2 Alpha variant; details: 18 h
# [2] = test system: Omicron variant (B.1.1.529); experiment: Post-exposure antiviral assay in hamsters, Omicron; assay type: in vivo
# [3] = test system: SARS-CoV-2 Delta variant; details: 18 h
# [4] = test system: SARS-CoV-2 (B.1.1.63, D614G); assay type: cell-based
# [5] = test system: SARS-CoV-2 Beta variant; details: 18 h
substance,measurement,setting,value
"I: GAICHPVFCPRRYKQIGTCGLPGTKCCKKPKK / II: GAICHPVFCPRRYKQIGTCGLPGTKCCKKPK / III: GAICHPVFCPRRYKQIGTCGLPGTKCCKKP / IV: GAICHPVFCPRRYKQIGTCGLPGTKCCKKP (amide I:31-IV:C, I:32-II:C, II:31-III:C; cysteines drawn unpaired) [4H30]",IC50,[1],0.75 µg/mL
same,Omicron variant titers in the nasal wash,"[2]; […], plaque assay, n = 4",significantly reduce
same,inhibition of Omicron replication in hamster lungs,"[2]; hamster, in vivo",more than 20 fold
same,IC50,[3],0.79 µg/mL
same,inhibition of SARS-CoV-2 replication when added at 6 hpi,[4],significantly inhibit
same,IC50,[5],0.89 µg/mL
